Laboratory results reported in the supplement of paper PMC6045584.
± gives the standard deviation of the averaged measurements.

What follows are test systems tested with Cc1ccc(-c2cc(C(F)(F)F)nn2-c2ccc(S(N)(=O)=O)cc2)cc1 [CELECOXIB] (assay: surviving fraction relative to DMSO-only wells; higher = less growth inhibition). Details: 100 nM; exposure time: 5 days.
Outline: (§1)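 Log-phase tumour cell lines, 250–500 cells per well in 384-well plates, received inhibitors at 0.5, 1, 5, 10, 50, 100, 500 and 1000 nM continuously for five days, starting 24 hours after seeding. Viability was quantified with CellTiter-Glo luminescence and normalised to the median of DMSO-only wells to give surviving fraction. Three screens were run per line, and a line stayed in only with replicate Pearson r >0.7 and median Z' >0.3.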

Test System | surviving fraction
SCC47 HEADNECK | 1.1 ± 0.026
SG28 HEADNECK | 1.233 ± 0.0057
CME SYNOVIAL | 1.41 ± 0.16
S68 BREAST | 1.21 ± 0.15
HS578T BREAST | 1.11 ± 0.17

Same assay, conditions: 500 nM; exposure time: 5 days

Test System | surviving fraction
HCC202 BREAST | 1.36 ± 0.39
SCC47 HEADNECK | 1.1 ± 0.054
SG28 HEADNECK | 1.16 ± 0.027
CME SYNOVIAL | 1.38 ± 0.13
S68 BREAST | 0.95 ± 0.34
HS578T BREAST | 0.961 ± 0.083

Same assay, conditions: 1000 nM; exposure time: 5 days

Test System | surviving fraction
HCC202 BREAST | 1.12 ± 0.16
SCC47 HEADNECK | 1.11 ± 0.033
SG28 HEADNECK | 1.29 ± 0.059
CME SYNOVIAL | 1.34 ± 0.076
S68 BREAST | 1.2 ± 0.11
HS578T BREAST | 0.969 ± 0.1

These test systems were tested with CC(=O)O[C@H]1C(=O)[C@@]2(C)[C@H]([C@H](OC(=O)c3ccccc3)[C@]3(O)C[C@H](OC(=O)[C@H](O)[C@@H](NC(=O)c4ccccc4)c4ccccc4)C(C)=C1C3(C)C)[C@]1(OC(C)=O)CO[C@@H]1C[C@@H]2O [PACLITAXEL] in the same assay as above. Details: 0.5 nM; exposure time: 5 days.
Outline: as §1

Test System | surviving fraction
HCC202 BREAST | 1.15 ± 0.51
SCC47 HEADNECK | 1 ± 0.079
SG28 HEADNECK | 1.05 ± 0.086
CME SYNOVIAL | 1.07 ± 0.11
S68 BREAST | 0.815 ± 0.052
HS578T BREAST | 0.428 ± 0.043

Same assay, conditions: 1 nM; exposure time: 5 days

Test System | surviving fraction
HCC202 BREAST | 0.655 ± 0.15
SCC47 HEADNECK | 0.749 ± 0.029
SG28 HEADNECK | 0.903 ± 0.13
CME SYNOVIAL | 0.933 ± 0.11
S68 BREAST | 0.575 ± 0.13
HS578T BREAST | 0.246 ± 0.019

Same assay, conditions: 5 nM; exposure time: 5 days

Test System | surviving fraction
HCC202 BREAST | 0.377 ± 0.091
SCC47 HEADNECK | 0.37 ± 0.015
SG28 HEADNECK | 0.645 ± 0.033
CME SYNOVIAL | 0.524 ± 0.12
S68 BREAST | 0.197 ± 0.045
HS578T BREAST | 0.127 ± 0.0038

Same assay, conditions: 10 nM; exposure time: 5 days

Test System | surviving fraction
HCC202 BREAST | 0.364 ± 0.12
SCC47 HEADNECK | 0.199 ± 0.015
SG28 HEADNECK | 0.635 ± 0.051
CME SYNOVIAL | 0.279 ± 0.073
S68 BREAST | 0.134 ± 0.026
HS578T BREAST | 0.108 ± 0.011

Same assay, conditions: 50 nM; exposure time: 5 days

Test System | surviving fraction
HCC202 BREAST | 0.362 ± 0.027
SCC47 HEADNECK | 0.143 ± 0.01
SG28 HEADNECK | 0.463 ± 0.072
CME SYNOVIAL | 0.258 ± 0.02
S68 BREAST | 0.14 ± 0.0047
HS578T BREAST | 0.126 ± 0.013

Same assay, conditions: 100 nM; exposure time: 5 days

Test System | surviving fraction
HCC202 BREAST | 0.362 ± 0.047
SCC47 HEADNECK | 0.141 ± 0.0051
SG28 HEADNECK | 0.505 ± 0.0085
CME SYNOVIAL | 0.219 ± 0.028
S68 BREAST | 0.144 ± 0.025
HS578T BREAST | 0.109 ± 0.0027

Same assay, conditions: 500 nM; exposure time: 5 days

Test System | surviving fraction
HCC202 BREAST | 0.352 ± 0.032
SCC47 HEADNECK | 0.1213 ± 0.00058
SG28 HEADNECK | 0.458 ± 0.02
CME SYNOVIAL | 0.2 ± 0.041
S68 BREAST | 0.114 ± 0.0076
HS578T BREAST | 0.11 ± 0.01
